The values that follow come from patent US12329758B2, “Methods for the treatment of psoriatic arthritis” (Alfasigma S.p.A., priority 2018, dated 2025).

Structures are written as SMILES.

Assay [1] has as its system moderately to severely active PsA. Put plainly: Phase 2 clinical study NCT03101670, ACR20/50/70 response. As to conditions: for ACR20 / ACR50 / ACR70: 200 mg q.d. It counts as in vivo, human. The text has this: For the purpose of the present invention, the terms “ACR20”, “ACR50” and “ACR70” as used herein are scores which indicate how much a patient's symptoms of peripheral arthritis have improved according to criteria set out by the American College of Rheumatology (ACR). The ACR score represents a percentage. An ACR20 score means that a person's arthritis symptoms have improved by 20%, an ACR50 score means it has improved by 50%, and an ACR70 score means it has improved by 70%. Specifically, to qualify for an ACR20 score, a person must have at least 20% fewer tender joints (at least 20% improvement from baseline in tender joint counts, TJC68) and at least 20% fewer swollen joints (at least 20% improvement from baseline in swollen joint counts, SJC66). In addition the patient must show a 20% improvement in at least three of the following five areas: the person's overall (global) assessment of his or her own disease activity (on a 0-100 mm visual analog scale (VAS)), the physician's global assessment of the person's disease activity (on a 0-100 mm VAS), the person's assessment of his or her own PsA pain intensity (on a 0-100 mm VAS), the person's assessment of his or her own physical functioning as measured by HAQ-DI, and the results of a C-reactive protein (CRP) blood test (in mg/dL or mg/L). ACR50 and ACR70 scores use the same criteria but require 50% and 70% improvement, respectively.
(§1) This is a multicenter, Phase 2, double-blind, placebo-controlled study in subjects with moderately to severely active PsA who have an inadequate response or are intolerant to conventional disease-modifying therapy. […] Randomization to treatment groups are stratified by current cDMARD use (yes or no) and prior anti-TNF pharmaceutical use (yes or no).
Efficacy assessments to estimate signs and symptoms of PsA and peripheral arthritis, psoriasis, enthesitis, dactylitis, spondylitis, and physical function are carried out at Baseline (Day 1) and at Weeks 1, 2, 4, 8, 12, 16, or at the early discontinuation visit (EDV) if applicable, unless otherwise noted. The individual components of the ACR response criteria are obtained at screening and throughout the study.
The patient's assessment of pain is performed using a 0-100 mm VAS ranging from “no pain” to “unbearable pain” after the question “Please indicate with a vertical mark (|) through the horizontal line the most pain you had from your psoriatic arthritis today”. The length of the line from 0 to the patient's mark is recorded. This assessment should be completed before the joint examination. This pain score is also used to derive the ACR20/50/70.
The signs and symptoms of peripheral arthritis are measured using ACR20/50/70. The ACR response is a measurement of improvement in multiple disease assessment criteria.
A positive ACR20 response is defined as at least 20% improvement from baseline in both swollen (SJC66) and tender (TJC68) joint counts, and at least 20% improvement in 3 or more of the following 5 criteria: • Patient's Global Assessment of Disease Activity (0-100 mm VAS) • Physician's Global Assessment of Disease Activity (0-100 mm VAS) • Patient's Global Assessment of PsA pain intensity (0-100 mm VAS) • Patient's assessment of physical function as measured by HAQ-DI • CRP in mg/dL or mg/L
A positive ACR50 and ACR70 response is derived from the definition of the ACR20, but requiring at least 50% and 70% improvement, respectively.

Assay [2] concerns psoriasis in PsA subjects with ≥3% BSA at baseline. Kind of assay: Phase 2 clinical study NCT03101670, psoriasis (PASI). In kind it is in vivo, human. As to conditions: 200 mg q.d.
Excerpt: As used herein, the term ‘PASI’ refers to the Psoriasis Area and Severity Index score and is an index used to express the severity of psoriasis. It combines the severity (erythema, induration and desquamation) and percentage of affected area. Further details on the determination of PASI is provided in example 1. The PASI score represents the change from baseline. ‘PASI50’ refers to the portion of patients who achieved 50% improvement in the PASI score upon the tested treatment. ‘PASI75’ refers to the portion of patients who achieved 75% improvement in the PASI score upon the tested treatment. ‘PASI90’ refers to the portion of patients who achieved 90% improvement in the PASI score upon the tested treatment.
as §1
The PASI score is used to measure the severity and extent of psoriasis. Representative area of psoriasis is selected for each body region (head, arms, trunk and legs). The intensity of erythema, induration and desquamation of the psoriasis is assessed as none (0), mild (1), moderate (2), severe (3) or very severe (4).
A numerical score, ranging from 0 to 100%, will be used to measure the proportion of the subject's total BSA involved with psoriasis, as assessed by the investigator.
Four sites of affection, the head (h), upper limb (u), trunk (t) and lower limbs (l), are separately scored by using 3 parameters, erythema (E), induration (I) and desquamation (D), each of which is graded on a severity scale of 0 to 4 (0=none, 1=mild, 2=moderate, 3=severe and 4=very severe) (Section 1.4.6). The area-wise percentage involvement of the involved sites is calculated as: 1=less than 10% area; 2=10-29%; 3=30-49%; 4=50-69%; 5=70-89%; and 6=more than 90%. The final formula for PASI score is: PASI=0.1×(Eh+Ih+Dh)×Ah+0.2×(Eu+Iu+Du)×Au+0.3×(Et+It+Dt)×At+0.4×(El+Il+Dl)×Al
The total PASI score ranges between 0 (no disease) and 72 (maximal disease), but is considered unreliable when BSA <3%. Therefore, the PASI is only analysed in the subpopulation of subjects with psoriasis involving ≥3% BSA at baseline.
The following PASI parameters can be derived: • PASI change from baseline • PASI 50% improvement (PASI50) • PASI 75% improvement (PASI75) • PASI 90% improvement (PASI90) • PASI 100% improvement or complete resolution of all disease (PASI100)

The mark [3] stands for this setting: W12, subjects with ≥3% BSA at baseline.
The mark [4] stands for this setting: W16, subjects with ≥3% BSA at baseline.

Take `O=C(Nc1nc2cccc(-c3ccc(CN4CCS(=O)(=O)CC4)cc3)n2n1)C1CC1` [compound I, cyclopropanecarboxylic acid {5-[4-(1,1-dioxo-thiomorpholin-4-ylmethyl)-phenyl]-[1,2,4]triazolo[1,5-a]pyridin-2yl}-amide]: the ACR20 in assay [1] (Week 1) worked out at 26.2%; in assay [1] (Week 2), 33.8%; in assay [1] (Week 4), 61.5%; in assay [1] (Week 8), 67.7%; in assay [1] (Week 12), 83.1%. Also, the ACR50 in assay [1] (Week 1) was found to be 6.2%; in assay [1] (Week 2), 10.8%; in assay [1] (Week 4), 20.0%; in assay [1] (Week 8), 32.3%; in assay [1] (Week 12), 41.5%; in assay [1] (Week 16), 47.7%. The ACR70 in assay [1] (Week 1) amounted to 1.5%; in assay [1] (Week 2), 3.1%; in assay [1] (Week 4), 7.7%; in assay [1] (Week 8) it was 12.3%; in assay [1] (Week 12), 10.8%; in assay [1] (Week 16), 23.1%. Also, the “ACR20 and ACR50 difference from placebo” value in assay [1] (as from week 1) was “statistically significant difference from placebo”. The “difference in ACR20, ACR50 and ACR70 score versus placebo” value in assay [1] (week 16) is on record as “statistically significant difference”. For the same compound, the PASI75 in assay [2] (setting [3]) is 33.3%; in assay [2] (setting [4]), 45.2%. Besides, the PASI mean cfb was −5.5 in assay [2] (setting [3]) and −6.3 in assay [2] (setting [4]).
